Reference: US9896441B2 (Lycera Corporation, priority 2014, dated 2018)

Key:
Gal4-RORγ-LBD = biological target: T1, Gal4-RORγ-LBD (Homo sapiens, UniProt P51449); assay: Gal4-RORγ Luciferase Reporter Assay in HEK-293T Cells; assay type: cell-based; conditions: HEK-293 cells, luciferase reporter, with ursolic acid
T1 construct: expressed in transfected cells
T1 sequence (P51449 269-508 limits assumed): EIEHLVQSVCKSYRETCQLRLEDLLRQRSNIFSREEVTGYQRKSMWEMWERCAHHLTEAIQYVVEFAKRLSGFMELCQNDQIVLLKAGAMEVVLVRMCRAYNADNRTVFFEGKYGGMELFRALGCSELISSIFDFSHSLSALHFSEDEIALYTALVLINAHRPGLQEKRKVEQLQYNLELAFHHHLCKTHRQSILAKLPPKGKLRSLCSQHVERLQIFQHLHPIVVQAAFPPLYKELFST
Summary of the method: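 HEK-293 cells were co-transfected with Gal4-RORγ-LBD and a Gal4-luciferase reporter, then exposed overnight at 37 °C to compounds with […] ursolic acid present (0.2% DMSO). Luminescence was read with One-Glo after 10 min at RT, untreated signal was set as 100, and Max Response was taken as the upper plateau of a 4-parameter logistic fit.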

RORγ-LBD = biological target: T2, RORγ-LBD (Homo sapiens, UniProt P51449); assay: RORγ-Ligand Binding Domain (LBD) TR-FRET Assay; assay type: biochemical; conditions: RORγ-LBD TR-FRET
T2 construct: made in house; host or cells: SF9 cells (baculovirus); used as diluted lysate
T2 sequence (P51449 269-508 limits assumed): T1 sequence (P51449 269-508 limits assumed)
Summary of the method: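 SF9 lysate containing His-RORγ-LBD, ~3 nM final; coactivator peptide biotin-SRC1 LXXLL, 200 nM final; ursolic acid 2 μM final; DMSO 1% final; Tris pH 7.0 buffer with KCl, EDTA, DTT, BSA. TR-FRET format.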

SMILES	EC50 (Gal4-RORγ-LBD)	EC50 (RORγ-LBD)
CCOc1nn(CC)cc1S(=O)(=O)N1C[C@H](CCC(=O)OC)Oc2ccc(/C=C/c3c(F)cccc3C(F)(F)F)cc21 [Example 87, Methyl (S,E)-3-(4-((3-ethoxy-1-ethyl-1H-pyrazol-4-yl)sulfonyl)-6-(2-fluoro-6-(trifluoromethyl)styryl)-3,4-dihydro-2H-benzo[b][1,4]oxazin-2-yl)propanoate]	500 to 5000 nM	< 500 nM
CCOc1nn(CC)cc1S(=O)(=O)N1C[C@H](CCC(=O)O)Oc2ccc(/C=C/c3c(F)cccc3C(F)(F)F)cc21 [Example 88, (S,E)-3-(4-((3-Ethoxy-1-ethyl-1H-pyrazol-4-yl)sulfonyl)-6-(2-fluoro-6-(trifluoromethyl)styryl)-3,4-dihydro-2H-benzo[b][1,4]oxazin-2-yl)propanoic acid]	500 to 5000 nM	< 500 nM
O=C(O)CC[C@H]1CN(S(=O)(=O)c2cccc(OC(F)F)c2)c2cc(/C=C/c3c(F)cccc3Cl)ccc2O1 [Example 89A, (S,E)-3-(6-(2-chloro-6-fluorostyryl)-4-((3-(difluoromethoxy)phenyl)sulfonyl)-3,4-dihydro-2H-benzo[b][1,4]oxazin-2-yl)propanoic acid]	500 to 5000 nM	< 500 nM
CCOc1nn(CC)cc1S(=O)(=O)N1C[C@H](CCC(=O)O)Oc2ccc(/C=C/c3cccc(Cl)n3)cc21 [Example 89AA, (S,E)-3-(6-(2-(6-chloropyridin-2-yl)vinyl)-4-((3-ethoxy-1-ethyl-1H-pyrazol-4-yl)sulfonyl)-3,4-dihydro-2H-benzo[b][1,4]oxazin-2-yl)propanoic acid]	> 10000 nM	500 to 5000 nM
CCOc1nn(CC)cc1S(=O)(=O)N1C[C@H](CCC(=O)OC)Oc2ccc(/C=C/c3cccc(Cl)n3)cc21 [Example 89AB, (S,E)-methyl 3-(6-(2-(6-chloropyridin-2-yl)vinyl)-4-((3ethoxy-1-ethyl-1H-pyrazol-4-yl)sulfonyl)-3,4-dihydro-2H-benzo[b][1,4]oxazin-2-yl)propanoate]	> 10000 nM	500 to 5000 nM
Cc1cccc(C)c1/C=C/c1ccc2c(c1)N(S(=O)(=O)c1cccc(OC(F)F)c1)C[C@H](CCC(=O)O)O2 [Example 89AC, (S,E)-3-(4-((3-(difluoromethoxy)phenyl)sulfonyl)-6-(2,6-dimethylstyryl)-3,4-dihydro-2H-benzo[b][1,4]-oxazin-2-yl)propanoic acid]	500 to 5000 nM	< 500 nM
CCOc1nn(CC)cc1S(=O)(=O)N1C[C@H](CCC(=O)O)Oc2ccc(/C=C/c3c(F)cccc3F)cc21 [Example 89AE, (S,E)-3-(6-(2,6-difluorostyryl)-4-((3-ethoxy-1-ethyl-1H-pyrazol-4-yl)sulfonyl)-3,4-dihydro-2H-benzo[b][1,4]-oxazin-2-yl)propanoic acid]	500 to 5000 nM	< 500 nM
CCOc1nn(CC)cc1S(=O)(=O)N1C[C@H](CCC(=O)OC)Oc2ccc(/C=C/c3c(F)cccc3F)cc21 [Example 89AF, (S,E)-methyl 3-(6-(2,6-difluorostyryl)-4-((3-ethoxy-1-ethyl-1H-pyrazol-4-yl)sulfonyl)-3,4-dihydro-2H-benzo[b][1,4]oxazin-2-yl)propanoate]	> 10000 nM	< 500 nM
CCOc1nn(CC)cc1S(=O)(=O)N1C[C@H](CCC(=O)O)Oc2ccc(/C=C/c3c(C)cccc3F)cc21 [Example 89AG, (S,E)-3-(4-((3-ethoxy-1-ethyl-1H-pyrazol-4-yl)sulfonyl)-6-(2-fluoro-6-methylstyryl)-3,4-dihydro-2H-benzo[b][1,4]-oxazin-2-yl)propanoic acid]	< 500 nM	< 500 nM
CCOc1nn(CC)cc1S(=O)(=O)N1C[C@H](CCC(=O)OC)Oc2ccc(/C=C/c3c(C)cccc3F)cc21 [Example 89AH, (S,E)-methyl 3-(4-((3-ethoxy-1-ethyl-1H-pyrazol-4-yl)sulfonyl)-6-(2-fluoro-6-methylstyryl)-3,4-dihydro-2H-benzo[b][1,4]-oxazin-2-yl)propanoate]	< 500 nM	< 500 nM
O=C(O)CC[C@H]1CN(S(=O)(=O)c2cccc(OC(F)F)c2)c2cc(/C=C/c3c(F)cccc3C(F)(F)F)ccc2O1 [Example 89AI, (S,E)-3-(4-((3-(difluoromethoxy)phenyl)sulfonyl)-6-(2-fluoro-6-(trifluoromethyl)-styryl)-3,4-dihydro-2H-benzo[b][1,4]oxazin-2-yl)propanoic acid]	500 to 5000 nM	< 500 nM
COC(=O)CC[C@H]1CN(S(=O)(=O)c2cccc(OC(F)F)c2)c2cc(/C=C/c3c(F)cccc3C(F)(F)F)ccc2O1 [Example 89AJ, (S,E)-methyl 3-(4-((3-(difluoromethoxy)phenyl)sulfonyl)-6-(2-fluoro-6-(trifluoromethyl)-styryl)-3,4-dihydro-2H-benzo[b][1,4]oxazin-2-yl)propanoate]	500 to 5000 nM	< 500 nM
COC(=O)CC[C@H]1CN(S(=O)(=O)c2cc(Cl)cnc2OCCO)c2cc(/C=C/c3c(F)cccc3Cl)ccc2O1 [Example 89AK, methyl (S,E)-3-(4-((5-chloro-2-(2-hydroxyethoxy)pyridin-3-yl)sulfonyl)-6-(2-chloro-6-fluorostyryl)-3,4-dihydro-2H-benzo[b][1,4]oxazin-2-yl)propanoate]	500 to 5000 nM	< 500 nM
O=C(O)CC[C@H]1CN(S(=O)(=O)c2cc(Cl)cnc2OCCO)c2cc(/C=C/c3c(F)cccc3Cl)ccc2O1 [Example 89AL, (S,E)-3-(4-((5-chloro-2-(2-hydroxyethoxy)pyridin-3-yl)sulfonyl)-6-(2-chloro-6-fluorostyryl)-3,4-dihydro-2H-benzo[b][1,4]oxazin-2-yl)propanoic acid]	500 to 5000 nM	< 500 nM
CCOc1nn(CC)cc1S(=O)(=O)N1C[C@H](CCC(=O)O)Oc2ccc(/C=C/c3ccccc3F)cc21 [Example 89AM, (S,E)-3-(4-((3-ethoxy-1-ethyl-1H-pyrazol-4-yl)sulfonyl)-6-(2-fluorostyryl)-3,4-dihydro-2H-benzo[b][1,4]oxazin-2-yl)propanoic acid]	> 10000 nM	< 500 nM
CCOc1nn(CC)cc1S(=O)(=O)N1C[C@H](CCC(=O)OC)Oc2ccc(/C=C/c3ccccc3F)cc21 [Example 89AN, (S,E)-methyl 3-(4-((3-ethoxy-1-ethyl-1H-pyrazol-4-yl)sulfonyl)-6-(2-fluorostyryl)-3,4-dihydro-2H-benzo[b][1,4]oxazin-2-yl)propanoate]	> 10000 nM	500 to 5000 nM
O=C(O)CC[C@H]1CN(S(=O)(=O)c2cccc(OC(F)F)c2)c2cc(/C=C/c3ccccc3C(F)(F)F)ccc2O1 [Example 89AO, (S,E)-3-(4-((3-(difluoromethoxy)phenyl)sulfonyl)-6-(2-(trifluoromethyl)styryl)-3,4-dihydro-2H-benzo[b][1,4]oxazin-2-yl)propanoic acid]	500 to 5000 nM	< 500 nM
COC(=O)CC[C@H]1CN(S(=O)(=O)c2cccc(OC(F)F)c2)c2cc(/C=C/c3ccccc3C(F)(F)F)ccc2O1 [Example 89AP, (S,E)-methyl 3-(4-((3-(difluoromethoxy)phenyl)sulfonyl)-6-(2-(trifluoromethyl)styryl)-3,4-dihydro-2H-benzo[b][1,4]-oxazin-2-yl)propanoate]	500 to 5000 nM	< 500 nM
N#Cc1ccccc1/C=C/c1ccc2c(c1)N(S(=O)(=O)c1cccc(OC(F)F)c1)C[C@H](CCC(=O)O)O2 [Example 89AQ, (S,E)-3-(6-(2-cyanostyryl)-4-((3-(difluoromethoxy)phenyl)sulfonyl)-3,4-dihydro-2H-benzo[b][1,4]oxazin-2-yl)propanoic acid]	500 to 5000 nM	< 500 nM
COC(=O)CC[C@H]1CN(S(=O)(=O)c2cccc(OC(F)F)c2)c2cc(/C=C/c3ccccc3C#N)ccc2O1 [Example 89AR, (S,E)-methyl 3-(6-(2-cyanostyryl)-4-((3-(difluoromethoxy)phenyl)sulfonyl)-3,4-dihydro-2H-benzo[b][1,4]-oxazin-2-yl)propanoate]	500 to 5000 nM	< 500 nM
CCOc1nn(CC)cc1S(=O)(=O)N1C[C@H](CCC(=O)O)Oc2ccc(/C=C/c3ccccc3C)cc21 [Example 89AS, (S,E)-3-(4-((3-ethoxy-1-ethyl-1H-pyrazol-4-yl)sulfonyl)-6-(2-methylstyryl)-3,4-dihydro-2H-benzo[b][1,4]oxazin-2-yl)propanoic acid]	> 10000 nM	< 500 nM
CCOc1nn(CC)cc1S(=O)(=O)N1C[C@H](CCC(=O)OC)Oc2ccc(/C=C/c3ccccc3C)cc21 [Example 89AT, (S,E)-methyl 3-(4-((3-ethoxy-1-ethyl-1H-pyrazol-4-yl)sulfonyl)-6-(2-methylstyryl)-3,4-dihydro-2H-benzo[b][1,4]oxazin-2-yl)propanoate]	500 to 5000 nM	< 500 nM
CCOc1nn(CC)cc1S(=O)(=O)N1C[C@H](CCC(=O)O)Oc2ccc(/C=C/c3ccccc3SC)cc21 [Example 89AU, (S,E)-3-(4-((3-ethoxy-1-ethyl-1H-pyrazol-4-yl)sulfonyl)-6-(2-(methylthio)styryl)-3,4-dihydro-2H-benzo[b][1,4]oxazin-2-yl)propanoic acid]	< 500 nM	< 500 nM
